From publication PMC10865806, “Structural insights into the molecular mechanism of high-level ceftazidime–avibactam resistance conferred by CMY-185” (mBio, 2024)

Assays:
Assay in all cases: Competitive inhibition of cephalothin hydrolysis and avibactam inhibition kinetics
Assay type in all cases: biochemical, Escherichia coli
[1] = biological target: T1, CMY-2 variant Q120K_N346Y (Klebsiella pneumoniae, UniProt Q48434, N366Y/Q140K); details: Q120K_N346Y; reporter substrate cephalothin 100 µM, Dixon plot; read-out: Ki app
T1 construct: all CMY-2 variant genes encoding the mature enzyme without a signal peptide were cloned into the protein expression plasmid vector pET-30b; made in house; host or cells: E. coli BL21 (DE3), pET-30b
Text: (§1) We tested the enzymes, CMY-2, two single mutants V211S (CMY-42) and N346Y, three double mutants A114E_N346Y, Q120K_N346Y, and V211S_N346Y, and the quadruplet mutant CMY-185 to elucidate the impact on the kinetic properties resulting from the four amino acid substitutions present in CMY-185 compared with CMY-2 ([8]). The steady-state kinetic parameters kcat and Km (or Ki app) for nitrocefin, cephalothin, ceftazidime, and cefiderocol and the inhibition parameters Ki app, k2/K, k−2, and koff for avibactam are summarized in Table 1. During the hydrolysis of nitrocefin, we observed the reduction of the initial velocity at concentrations above 50 µM particularly for the CMY-2 variants harboring the N346Y substitution. As this could have represented substrate inhibition, we then determined the kinetics parameters for nitrocefin using the Haldane equation ([16]). […] In addition, during the hydrolysis of cefiderocol by CMY-185, the initial velocities at a concentration range of 3.7–59.4 µM were similar.
(§2) The steady-state kinetics were carried out on a UV-Visible spectrometer (UV-1280, Shimadzu, Japan) in PBS pH 7.2 at 25°C with a constant amount of enzyme and varying concentrations of the substrates. We tested nitrocefin, cephalothin, ceftazidime, and cefiderocol as the substrates and avibactam as the inhibitor. The steady-state kinetics parameters Km and kcat were determined with the Michaelis-Menten equation. For poorly hydrolyzed substrates, the Km value was assumed to be the competitive inhibition constant (Ki app) value according to previous studies ([17], [19]). Inhibition parameter values of Ki app, k2/K, k−2, and koff for avibactam were determined using a method as described previously ([33]). Cephalothin was used as the reporter substrate for competitive inhibition experiments, and its concentration was fixed at 100 µM. The enzyme concentration was 1–10 nM. Inverse steady-state initial velocities were plotted against the concentration of the competitive inhibitor agents, such as ceftazidime, cefiderocol, and avibactam. The data were analyzed by linear regression analysis of the Dixon plot, and Ki app (observed) was determined by dividing the y-intercept value by the slope of the line. It was then corrected to account for the affinity of cephalothin for each enzyme using the Equation (1):
(§3) (1) Ki app=Ki app (observed)/{1+[S]/Km (cephalothin)}
(§4) where [S] represents the concentration of the reporter substrate cephalothin, and Km (cephalothin) is the Km value of cephalothin for each enzyme.
(§5) The koff value was determined using a jump dilution assay. The enzyme and avibactam were mixed and preincubated at 25°C for 5 min. The concentration of avibactam depended on the enzyme and concentrations 10-fold higher from each Ki app (observed) value were adopted, which were determined based on the corrected competitive inhibition constants Ki app. Preincubated enzyme-avibactam mixture was then diluted 2,000-fold in the 100 µM cephalothin solution, and the hydrolysis of cephalothin was measured. Three independent measurements were performed for each enzyme and substrate or inhibitor combination. Curve fittings using linear or non-linear regression were performed with R 4.1.3 (R Core Team, 2022).

CMY-2 variant N346Y = biological target: T2, CMY-2 variant N346Y (Klebsiella pneumoniae, UniProt Q48434, N366Y); details: N346Y; reporter substrate cephalothin 100 µM, Dixon plot; read-out: Ki app
T2 construct: all CMY-2 variant genes encoding the mature enzyme without a signal peptide were cloned into the protein expression plasmid vector pET-30b; made in house; host or cells: E. coli BL21 (DE3), pET-30b
Text: as §1, §2, §3, §4, §5

CMY-2 = biological target: T3, CMY-2 (Klebsiella pneumoniae, UniProt Q48434)
T3 construct: all CMY-2 variant genes encoding the mature enzyme without a signal peptide were cloned into the protein expression plasmid vector pET-30b; made in house; host or cells: E. coli BL21 (DE3), pET-30b
Text: as §1, §2, §3, §4, §5

CMY-185 = biological target: T4, CMY-185 (Klebsiella pneumoniae, UniProt Q48434, A134E/N366Y/Q140K/V231S); details: CMY-185; reporter substrate cephalothin 100 µM, Dixon plot; read-out: Ki app
T4 construct: all CMY-2 variant genes encoding the mature enzyme without a signal peptide were cloned into the protein expression plasmid vector pET-30b; made in house; host or cells: E. coli BL21 (DE3), pET-30b
Text: as §1, §2, §3, §4, §5

[2] = biological target: T5, CMY-2 variant A114E_N346Y (Klebsiella pneumoniae, UniProt Q48434, A134E/N366Y); details: reporter substrate cephalothin 100 µM, Dixon plot, read-out: Ki app
T5 construct: all CMY-2 variant genes encoding the mature enzyme without a signal peptide were cloned into the protein expression plasmid vector pET-30b; made in house; host or cells: E. coli BL21 (DE3), pET-30b
Text: as §1, §2, §3, §4, §5

With `CC(C)(O/N=C(\C(=O)N[C@@H]1C(=O)N2C(C(=O)[O-])=C(C[N+]3(CCNC(=O)c4ccc(O)c(O)c4Cl)CCCC3)CS[C@H]12)c1csc(N)n1)C(=O)O` [Cefiderocol, cefiderocol] the Ki [1] was 400 nM, the Ki (CMY-2 variant N346Y) was 700 nM and the “fold higher Ki app” value (CMY-2; cefiderocol compared with ceftazidime) was 10 fold. The Ki (CMY-2; reporter substrate cephalothin 100 µM, Dixon plot, read-out: Ki app) was 8000 ± 1300 nM, the Ki (CMY-185) was 200 nM and the Ki [2] was 400 nM.
